Laboratory results reported in patent US12263155B2, “Combinations of monoamine oxidase inhibitors and serotonin receptor agonists and their therapeutic use” (Remedi, Inc., priority 2022, dated 2025).
“And” between values parts separate entries of the source, which are not always exact repeats. Equal values may be shown once. “Also recorded” adds a separate entry of the source.

Target: T1, brain MAO-A (Rattus norvegicus, UniProt P21396)
T1 construct: prepared from brain homogenates of male Sprague-Dawley rats, served as the source of MAO-A enzymatic activity; from tissue
T1 sequence (P21396 1-526): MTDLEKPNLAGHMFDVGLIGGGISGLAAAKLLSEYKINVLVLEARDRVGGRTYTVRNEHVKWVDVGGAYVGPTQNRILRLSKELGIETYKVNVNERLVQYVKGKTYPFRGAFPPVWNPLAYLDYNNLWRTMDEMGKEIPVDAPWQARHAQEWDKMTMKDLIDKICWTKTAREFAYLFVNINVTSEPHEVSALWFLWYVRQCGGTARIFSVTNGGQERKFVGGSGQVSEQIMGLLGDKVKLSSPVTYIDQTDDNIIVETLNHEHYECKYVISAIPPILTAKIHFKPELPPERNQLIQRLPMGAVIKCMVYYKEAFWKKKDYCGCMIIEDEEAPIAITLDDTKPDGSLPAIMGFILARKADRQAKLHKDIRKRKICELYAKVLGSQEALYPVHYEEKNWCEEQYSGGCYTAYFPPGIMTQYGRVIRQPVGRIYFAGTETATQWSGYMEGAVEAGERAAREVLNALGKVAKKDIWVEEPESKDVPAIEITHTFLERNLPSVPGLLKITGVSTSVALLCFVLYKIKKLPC
Assay: Ex vivo brain MAO-A activity after oral CX157 in rats
Set-up: mean brain MAO-A activity (Avg.) / brain MAO-A activity, single experimental day: unit not given here
Settings: for mean brain MAO-A activity (Avg.): average of 4 days
Protocol: Methods: Sprague-Dawley male rats (average weight of 190 g) were segregated into three groups for testing of the effects of CX157 on brain MAO-A enzyme activity. The three groups consisted of animals who received either 1, 5, and 10 mg/kg of CX157. Each group consisted of twenty-four subjects. Test animals were administered the doses of CX157 orally, by the gavage method in accordance with White & Scates, Drug Dev Res. 1992; 25:191-199.
In each drug group, four animals were sacrificed at each time period (0, 2, 4, 8, 18 and 24 hours) on four different days following drug administration. Brains were removed from the animal, bisected, frozen immediately on dry ice and placed in a −80° C. freezer. Trunk blood was collected in tubes containing sodium heparin and centrifuged at 5000 rpm for 10 minutes at 4° C. to extract the plasma. The frozen brain samples were thawed, weighed, and homogenized (3:1 tissue weight/buffer volume) in 0.25 M sucrose, containing 50 mM KHPO4(pH 7.4), with a Teflon glass homogenizer. Deprenyl HCl (at a final concentration of 100 nM) was added to each sample of homogenate to block MAO-B enzyme activity. A volume of 400 μl of homogenate was pipetted into each assay tube. A 50 μl volume of 500 μM [^14C]-5HT (specific activity of 1.6 Curies/mmol) was added to each assay tube to give a final concentration of […]. Blank assay tubes (included to correct for nonspecific deamination of [^14C]-5HT) also contained 50 μl of RO-41-1049, while total activity assay tubes (specific and nonspecific deaminating activity) contained 50 μl of buffer. The final concentration of RO-41-1049 in the blank activity tubes was 100 μM. This yielded a total assay volume of 500 μl. All assays were incubated for 7.5 minutes at 37° C. The reaction was terminated by the addition of 500 μl of 2 M citric acid. The deaminated [^14C]-5HT metabolite was extracted into a liquid scintillation fluor mixture of xylene/ethyl acetate and 0.4% PPO and quantified using a liquid scintillation spectrometer.
The specific activity of MAO-A in each of the samples was determined by subtraction of the values obtained in the nonspecific tubes from those in the total activity tubes. Methylcellulose was prepared by weighing 17.5 grams in a weigh boat on a Mettler balance and poured into a 4 liter flask. Two liters of distilled water was added to the 4 liter flask. The mixture was placed on a stir plate/hot plate and stirred overnight (for 24 hours) until completely dissolved. After the methylcellulose dissolved, distilled water was added until the volume in the flask reached 3.5 liters. The CX157 was prepared in a 0.5% methylcellulose/Tween 80 mixture to obtain the following dosages 1, 5, and 10 mg/kg. Initially, 52 mg of CX157 was placed in a 7 ml amber vial. A volume of 52 μl of Tween 80 was added to the amber vial containing CX157. A volume of 5.2 ml of methylcellulose was added to this vial to yield a solution of 10 mg/ml; this solution was used to deliver the 10 mg/kg dose. For the 5 mg/kg dose, a 5 mg/ml solution was prepared as follows; a volume of 1 ml of 10 mg/ml stock was mixed with 1 ml of methylcellulose and sonicated until mixed thoroughly. For the 1 mg/kg dose, a 1:10 dilution of the stock dose of 10 mg/ml was performed by pipetting 0.5 ml of 10 mg/ml stock into an amber vial with an addition of 4.5 ml of methylcellulose followed by sonication to disperse the drug into solution. All drugs were then administered on a 1 ml/kg basis with an average volume of 200 μl.

O=S1(=O)c2ccc(F)cc2Oc2cc(OCC(F)(F)F)ccc21 [CX157, 3-fluoro-7(2,2,2-trifluorethoxy)phenoxathiine-10,10-dioxide]
brain MAO-A activity, % Baseline (1 mg/kg oral table, 0 h (baseline)): 100% | Mean brain MAO-A activity (1 mg/kg oral table, 0 h (pooled baseline, N=12)): 4002.0 DPM | mean brain MAO-A activity (Avg.) (1 mg/kg oral, 0 h): 3636 | Mean brain MAO-A activity (1 mg/kg oral, 2 h): 2777.5 DPM | brain MAO-A activity, % Baseline (1 mg/kg oral, 2 h): 69% | mean brain MAO-A activity (Avg.) (1 mg/kg oral, 2 h): 2778 | Mean brain MAO-A activity (1 mg/kg oral, 4 h): 3023.3 DPM | brain MAO-A activity, % Baseline (1 mg/kg oral, 4 h): 76% | mean brain MAO-A activity (Avg.) (1 mg/kg oral, 4 h): 3023 | Mean brain MAO-A activity (1 mg/kg oral, 8 h): 5120.8 DPM | brain MAO-A activity, % Baseline (1 mg/kg oral, 8 h): 128% | mean brain MAO-A activity (Avg.) (1 mg/kg oral, 8 h): 5121 | Mean brain MAO-A activity (1 mg/kg oral, 18 h): 3993.0 DPM | brain MAO-A activity, % Baseline (1 mg/kg oral, 18 h): 100% | brain MAO-A activity, single experimental day (1 mg/kg oral, 18 h, Day #1-#4, 1 mg/kg): 5071 and 5019 and 3071 and 2811 | mean brain MAO-A activity (Avg.) (1 mg/kg oral, 18 h): 3993 | Mean brain MAO-A activity (1 mg/kg oral, 24 h): 4883.0 DPM | brain MAO-A activity, % Baseline (1 mg/kg oral, 24 h): 122% | mean brain MAO-A activity (Avg.) (1 mg/kg oral, 24 h): 4883 | brain MAO-A activity, % Baseline (5 mg/kg oral table, 0 h (baseline)): 100% | Mean brain MAO-A activity (5 mg/kg oral table, 0 h (pooled baseline, N=12)): 4002.0 DPM | brain MAO-A activity, single experimental day (5 mg/kg oral, 0 h, Day #1-#4, 5 mg/kg): 5661 and 5499 and 3070 and 3687 | mean brain MAO-A activity (Avg.) (5 mg/kg oral, 0 h): 4479 | Mean brain MAO-A activity (5 mg/kg oral, 2 h): 1495.5 DPM | brain MAO-A activity, % Baseline (5 mg/kg oral, 2 h): 37% | mean brain MAO-A activity (Avg.) (5 mg/kg oral, 2 h): 1496 | Mean brain MAO-A activity (5 mg/kg oral, 4 h): 2298.0 DPM | brain MAO-A activity, % Baseline (5 mg/kg oral, 4 h): 57% | mean brain MAO-A activity (Avg.) (5 mg/kg oral, 4 h): 2298 | Mean brain MAO-A activity (5 mg/kg oral, 8 h): 1365.5 DPM | brain MAO-A activity, % Baseline (5 mg/kg oral, 8 h): 34% | mean brain MAO-A activity (Avg.) (5 mg/kg oral, 8 h): 1366 | Mean brain MAO-A activity (5 mg/kg oral, 18 h): 2818.5 DPM | brain MAO-A activity, % Baseline (5 mg/kg oral, 18 h): 70% | mean brain MAO-A activity (Avg.) (5 mg/kg oral, 18 h): 2818 | Mean brain MAO-A activity (5 mg/kg oral, 24 h): 3442.5 DPM | brain MAO-A activity, % Baseline (5 mg/kg oral, 24 h): 86% | mean brain MAO-A activity (Avg.) (5 mg/kg oral, 24 h): 3443 | brain MAO-A activity, % Baseline (10 mg/kg oral table, 0 h (baseline)): 100% | Mean brain MAO-A activity (10 mg/kg oral table, 0 h (pooled baseline, N=12)): 4002.0 DPM | mean brain MAO-A activity (Avg.) (10 mg/kg oral, 0 h): 3889 | Mean brain MAO-A activity (10 mg/kg oral, 2 h): 3805.8 DPM | brain MAO-A activity, % Baseline (10 mg/kg oral, 2 h): 95% | mean brain MAO-A activity (Avg.) (10 mg/kg oral, 2 h): 3806 | Mean brain MAO-A activity (10 mg/kg oral, 4 h): 1893.5 DPM | brain MAO-A activity, % Baseline (10 mg/kg oral, 4 h): 47% | mean brain MAO-A activity (Avg.) (10 mg/kg oral, 4 h): 1894 | Mean brain MAO-A activity (10 mg/kg oral, 8 h): 1034.5 DPM | brain MAO-A activity, % Baseline (10 mg/kg oral, 8 h): 26% | mean brain MAO-A activity (Avg.) (10 mg/kg oral, 8 h): 1035 | Mean brain MAO-A activity (10 mg/kg oral, 18 h): 2149.8 DPM | brain MAO-A activity, % Baseline (10 mg/kg oral, 18 h): 54% | mean brain MAO-A activity (Avg.) (10 mg/kg oral, 18 h): 2150 | Mean brain MAO-A activity (10 mg/kg oral, 24 h): 1711.8 DPM | brain MAO-A activity, % Baseline (10 mg/kg oral, 24 h): 43% | mean brain MAO-A activity (Avg.) (10 mg/kg oral, 24 h): 1712 | inhibition of brain MAO-A enzyme activity after oral administration (oral 1, 5, 10 mg/kg): dose and time dependent manner; also recorded: dose-dependent and reversible fashion
